Three compounds from PMC11554305, “Functional identification of soluble uric acid as an endogenous inhibitor of CD38” (eLife, 2024) can be followed below.

SMILES strings stand for the structures.

The subject of assay [1] is CD38. Kind of assay: Hydrolase and cyclase activities of human and murine CD38. The assay is classed as biochemical. The method, then: (§1) The hydrolase activity of CD38 was measured according to a previous report ([de Oliveira et al., 2018]) with minor modifications. CD38 hydrolase activity was measured using 50 μM ε-NAD^+ as a substrate in hydrolase reaction buffer (250 mM sucrose, 40 mM Tris-HCl, pH 7.4). Briefly, cells or tissues were directly homogenized in blank reaction buffer on ice, and recombinant hCD38 was diluted in blank reaction buffer for subsequent assays. The tissue homogenates were centrifuged to collect the supernatant for enzyme assays. The loading volume of enzyme was 4–30 μL, the total volume of the reaction system was 3 mL. To detect enzyme inhibition, except when specified, the ligands were directly dissolved in hydrolase reaction buffer before pH adjustment, after which, the pH was immediately adjusted to 7.4. All reaction buffers, with or without ligands, were freshly prepared before each assay. For measurement of hydrolase activity, 3 mL reaction buffer containing enzyme, ε-NAD^+, and ligands at indicated concentrations was maintained at 37°C with constant stirring.
(§2) The cyclase activity of CD38 was measured as previously described ([Higashida et al., 1999]; [Jin et al., 2007]). CD38 cyclase activity was measured using 60 μM NGD as a substrate in cyclase reaction buffer (100 mM KCl, 10 μM CaCl2, and 50 mM Tris-HCl, pH 6.6). Tissues were cut into pieces and suspended in the buffer (5 mM MgCl2, 10 mM Tris-HCl, pH 7.3) at 4°C for 30 min. Then, the suspension was homogenized on ice, and the supernatant was collected after centrifugation. To collect the crude membrane fractions, the supernatant was centrifuged at 105,000×g for 30 min. The final pellet was resuspended in 10 mM Tris-HCl solution (pH 6.6) for cyclase assay. Homogenates of THP-1 or A549 cells, and recombinant hCD38 were used directly for cyclase assays. The loading volume of enzyme was 4–20 μL, the total volume of reaction system was 3 mL. To detect enzyme inhibition, except when specified, the ligands were directly dissolved in cyclase reaction buffer before pH adjustment, after which, the pH was immediately adjusted to 6.6. All reaction buffers, with or without ligands, were freshly prepared before each assay. For measurement of cyclase activity, 3 mL reaction buffer containing enzyme, NGD, and ligands at indicated concentrations was maintained at 37°C with constant stirring.
(§3) The reaction buffer for hydrolase or cyclase assays was excited at 300 nm, and fluorescence emission was measured every second at 410 nm by Shimazu RF-6000 spectrofluorometer. Hydrolase or cyclase activity was calculated from the linear portion of the time course by fitting a linear function to the data points recorded within 5 min.
Guanosine was dissolved in DMSO and diluted in the reaction buffer for subsequent assays.
For reversibility test, recombinant hCD38 was pre-incubated for 30 min in four conditions: (1) control reaction buffer; (2) in the presence of 100 μM substrate (ε-NAD^+ or NGD); (3) 500 μM sUA; (4) both substrate and sUA. Subsequently, the enzyme was diluted 100-fold in reaction buffer in the presence or absence of 500 μM sUA for activity assays using ε-NAD^+ or NGD. Naïve THP-1 and A549 cells were incubated with RPMI-1640 medium in the presence or absence of 500 μM sUA for 2 hr. The cells were collected and homogenized in the reaction buffer on ice with or without 500 μM sUA, samples were then diluted 100-fold in reaction buffer with or without 500 μM sUA for enzyme assay. Control group was not treated with sUA in all steps; sUA group was treated with sUA in each step; sUA release group was treated with sUA prior to dilution in sUA-free buffer for enzyme assays.

In assay [2] the target is T1, murine CD38 (Mus musculus, UniProt P56528).
T1 construct: from tissue; host or cells: WT ICR mouse tissues (brain, liver, lung, heart, kidney, spleen, ileum, skeletal muscle)
T1 sequence (P56528 1-304): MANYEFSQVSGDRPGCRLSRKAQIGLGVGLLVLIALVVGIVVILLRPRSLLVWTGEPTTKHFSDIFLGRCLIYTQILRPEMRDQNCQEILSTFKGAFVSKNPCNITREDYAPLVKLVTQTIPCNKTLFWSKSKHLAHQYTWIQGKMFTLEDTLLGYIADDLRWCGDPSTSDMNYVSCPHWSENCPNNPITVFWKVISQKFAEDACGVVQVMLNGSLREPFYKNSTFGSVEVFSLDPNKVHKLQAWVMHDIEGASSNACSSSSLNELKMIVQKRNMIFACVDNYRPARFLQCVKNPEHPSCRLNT
Kind of assay: CD38 hydrolase activity in tissues from WT mice. Format: biochemical. To be noted: for Ki: WT mice, Figure 1E. How it is done:
as §1, §3

For assay [3], the target named is T1, murine CD38. Kind of assay: CD38 cyclase activity in tissues from WT mice. Conditions: for Ki: WT mice, Figure 1E. The assay is classed as biochemical. The method, then:
as §2, §3

Assay [4] has as its system A549 cells. As to the kind of experiment: Intracellular NAD+ assay in A549 cells. The assay is classed as cell-based, human. To be noted: sUA 100 to 500 μM, 20 hr. The method, then:
A549 cells were seeded in 24-well plates for NAD^+ assay. Briefly, when the confluence reached 80%, the culture medium in each well was discarded, and the cells were washed twice with sterile PBS and incubated in RPMI-1640 medium containing 1% FBS in the presence or absence of sUA (from 100 to 500 μM) for 20 hr. Then, the cells were washed twice with sterile PBS, after the second washing, PBS was completely removed and 100 μL 5% ice-cold perchloric acid (PCA) was added into each well. The plate was kept on ice for 2 hr, then cell samples were collected and centrifuged at 15,000 rpm, 4°C for 10 min. The supernatant was used for subsequent handling and measurement (see LC-MS/MS analysis).
As mentioned above, samples (cells, tissues, blood, or reaction buffer) were treated with ice-cold PCA, after extraction and centrifugation, the collected supernatant was appropriately diluted in 5% ice-cold PCA when applicable, and then was vortexed for 30 s and centrifuged at 15,000 rpm, 4°C for 5 min. […] All the samples after handling were immediately analyzed in this study without freezing and thawing.
The LC-MS/MS system consisted of a triple quadrupole LCMS-8050 (Shimadzu) and an LC-30A system (Shimadzu). […] NAD^+ and NMN were measured independently in this study, as their peaks were hardly separated within a short time.

Setting [5] is: lung tissues from WT mice, OA 0–5 mM.

Turning to `O=c1[nH]cnc2c1ncn2[C@@H]1O[C@H](CO)[C@@H](O)[C@H]1O` [Inosine, inosine, reference compound], the “Effect on hydrolase and cyclase activities of human and murine CD38” value in assay [1] (sUA precursors and metabolite, above physiological levels, Figure 2B, C and supplement 1A–C) is given as “hardly inhibited”.

`O=C(O)c1nc(=O)[nH]c(=O)[nH]1` [OA, oxonic acid, reference compound]: the IC50 – broadly, the concentration needed to halve the response being measured – in assay [2] (setting [5]) came out at 2200 µM; in assay [3] (setting [5]), 4470 µM.

Regarding `O=c1[nH]c(=O)c2[nH]c(=O)[nH]c2[nH]1` [sUA, uric acid], the inhibition constant Ki (as a rule, the equilibrium dissociation constant of an inhibitor or competing ligand from its target) in assay [2] (Brain) turned out to be 83.5 µM; in assay [2] (Heart), 80.6 µM; in assay [2] (Ileum) it was 79.9 µM; in assay [2] (Kidney), 84.7 µM; in assay [2] (Liver), 77.3 µM; in assay [2] (Lung), 82.5 µM. The Ki in assay [2] (Skeletal muscle) was found to be 83 µM; in assay [2] (Spleen), 70.5 µM; in assay [3] (Brain), 71.1 µM; in assay [3] (Heart) it was 70.9 µM; in assay [3] (Ileum), 72.1 µM; in assay [3] (Kidney), 78.2 µM. In addition, the Ki in assay [3] (Liver) was 76.7 µM; in assay [3] (Lung) it was 77 µM; in assay [3] (Skeletal muscle) it was 93.3 µM; in assay [3] (Spleen) it was 78.1 µM; in assay [1] (span over all enzyme sources), 57.1 to 93.3 µM. Also, in assay [4], the “Intracellular NAD+” value is reported as “boosted intracellular NAD^+”.
